Tests used:
[1] = target: P-gp (ABCB1) (Homo sapiens, UniProt P08183); experiment: Substrate activity at human P-gp assessed as efflux ratio by cell based assay; conditions: not told
[2] = Clearance in rat at 2 mg/kg, iv; format: ADME, organism-based; conditions: in vivo
[3] = tested on: Mus musculus; experiment: Inhibition of mRNA splicing of SMN2 exon 7 in C/C-allele mouse harboring FVB.129(B6) Smn1tm5(Smn1/SMN2)Mrph/J assessed as increase in SMN protein level in brain at 3 mg/kg, po qd for 10 days measured 1 hr after 10th dose by HTRF assay relative to control; format: functional; parameters: scale not given: the % may be the effect or the level left
[4] = Half life in rat at 10 mg/kg, po; format: ADME, organism-based; conditions: in vivo
[5] = Fraction unbound in human plasma; format: ADME, cell-free
[6] = Unbound AUC in plasma of C/C-allele mouse harboring FVB.129(B6)-Smn1tm5(Smn1/SMN2)Mrph/J at 10 mg/kg, po; format: ADME, organism-based; conditions: in vivo
[7] = Mutagenicity in Salmonella typhimurium TA98 assessed as increase in revertant colonies after 2 days in presence of rat liver S9 fraction by Ames test relative to control; format: toxicity; conditions: salmonella enterica subsp. enterica serovar typhimurium, s9, 48 h
[8] = tested on: Mus musculus; experiment: (§1) Inhibition of mRNA splicing of SMN2 exon 7 in neonatal delta7 mouse harboring FVB.Cg-Tg(SMN2 delta7)4299Ahmb Tg(SMN2)-89Ahmb Smn1tm1Msd/J assessed as increase in SMN protein level in brain administered ip qd dosed from postnatal day 3 to postnatal day 9 measured 1 hr after last dose by HTRF assay; format: functional, organism-based
[9] = tested on: Mus musculus; experiment: as §1, with “quadriceps at 1 mg/kg,” for “brain administered”, “administered” for “dosed”, “assay relative to control” for “assay”; format: functional; parameters: scale not given: the % may be the effect or the level left
[10] = Octanol-aqueous phosphate buffer distribution coefficient, log D of the compound at pH 7.4 at 100 mM after 24 hrs by LC-MS based shake flask method; format: physicochemical
[11] = tested on: Mus musculus; experiment: as §1, with “quadriceps” for “brain”; format: functional, organism-based
[12] = Mutagenicity in Salmonella typhimurium TA102 assessed as increase in revertant colonies after 2 days in presence of rat liver S9 fraction by Ames test relative to control; format: toxicity; conditions: salmonella enterica subsp. enterica serovar typhimurium, s9, 48 h
[13] = tested on: Mus musculus; experiment: as §1, with “quadriceps at 0.3 mg/kg,” for “brain administered”, “administered” for “dosed”, “assay relative to control” for “assay”; format: functional; parameters: scale not given: the % may be the effect or the level left
[14] = tested on: Mus musculus; experiment: as §1, with “at 1 mg/kg,” for “administered”, “administered” for “dosed”, “assay relative to control” for “assay”; format: functional; parameters: scale not given: the % may be the effect or the level left
[15] = tested on: Mus musculus; experiment: Inhibition of mRNA splicing of SMN2 exon 7 in C/C-allele mouse harboring FVB.129(B6) Smn1tm5(Smn1/SMN2)Mrph/J assessed as increase in SMN protein level in quadriceps at 1 mg/kg, po qd for 10 days measured 1 hr after 10th dose by HTRF assay relative to control; format: functional; parameters: scale not given: the % may be the effect or the level left
[16] = AUC in plasma of C/C-allele mouse harboring FVB.129(B6)-Smn1tm5(Smn1/SMN2)Mrph/J at 10 mg/kg, po; format: ADME, organism-based
[17] = tested on: Mus musculus; experiment: as §1, with “at 0.3 mg/kg,” for “administered”, “administered” for “dosed”, “assay relative to control” for “assay”; format: functional; parameters: scale not given: the % may be the effect or the level left
[18] = Fraction unbound in rat plasma; format: ADME, cell-free
[19] = Mutagenicity in Salmonella typhimurium TA97 assessed as increase in revertant colonies after 2 days in presence of rat liver S9 fraction by Ames test relative to control; format: toxicity; conditions: salmonella enterica subsp. enterica serovar typhimurium, s9, 48 h
[20] = Fraction unbound in mouse plasma; format: ADME, cell-free
[21] = tested on: Mus musculus; experiment: Inhibition of mRNA splicing of SMN2 exon 7 in C/C-allele mouse harboring FVB.129(B6) Smn1tm5(Smn1/SMN2)Mrph/J assessed as increase in SMN protein level in brain administered orally po qd for 10 days measured 1 hr after 10th dose by HTRF assay; format: functional, organism-based
[22] = Fraction unbound in Cynomolgus monkey plasma; format: ADME, cell-free, Macaca fascicularis
[23] = tested on: Mus musculus; experiment: Inhibition of mRNA splicing of SMN2 exon 7 in C/C-allele mouse harboring FVB.129(B6) Smn1tm5(Smn1/SMN2)Mrph/J assessed as increase in SMN protein level in brain at 1 mg/kg, po qd for 10 days measured 1 hr after 10th dose by HTRF assay relative to control; format: functional; parameters: scale not given: the % may be the effect or the level left
[24] = Oral bioavailability in Cynomolgus monkey at 1 mg/kg; format: ADME, organism-based, Macaca fascicularis; conditions: in vivo
[25] = tested on: Mus musculus; experiment: Inhibition of mRNA splicing of SMN2 exon 7 in C/C-allele mouse harboring FVB.129(B6) Smn1tm5(Smn1/SMN2)Mrph/J assessed as increase in SMN protein level in brain at 10 mg/kg, po qd for 10 days measured 1 hr after 10th dose by HTRF assay relative to control; format: functional; parameters: scale not given: the % may be the effect or the level left
[26] = Mutagenicity in Salmonella typhimurium TA100 assessed as increase in revertant colonies after 2 days in presence of rat liver S9 fraction by Ames test relative to control; format: toxicity; conditions: salmonella enterica subsp. enterica serovar typhimurium, s9, 48 h
[27] = Clearance in Cynomolgus monkey at 0.3 mg/kg, iv; format: ADME, organism-based, Macaca fascicularis; conditions: in vivo
[28] = Half life in Cynomolgus monkey at 1 mg/kg, po; format: ADME, organism-based, Macaca fascicularis; conditions: in vivo
[29] = tested on: Mus musculus; experiment: Inhibition of mRNA splicing of SMN2 exon 7 in C/C-allele mouse harboring FVB.129(B6) Smn1tm5(Smn1/SMN2)Mrph/J assessed as increase in SMN protein level in quadriceps at 3 mg/kg, po qd for 10 days measured 1 hr after 10th dose by HTRF assay relative to control; format: functional; parameters: scale not given: the % may be the effect or the level left
[30] = Oral bioavailability in rat at 10 mg/kg; format: ADME, organism-based; conditions: in vivo
[31] = tested on: Mus musculus; experiment: Inhibition of mRNA splicing of SMN2 exon 7 in C/C-allele mouse harboring FVB.129(B6) Smn1tm5(Smn1/SMN2)Mrph/J assessed as increase in SMN protein level in quadriceps administered orally qd for 10 days measured 1 hr after 10th dose by HTRF assay; format: functional, organism-based
[32] = Volume of distribution at steady state in Cynomolgus monkey at 0.3 mg/kg, iv; format: ADME, organism-based, Macaca fascicularis; conditions: in vivo, read-out: Vdss
[33] = Volume of distribution at steady state in rat at 2 mg/kg, iv; format: ADME, organism-based; conditions: in vivo, read-out: Vdss
[34] = Mutagenicity in Salmonella typhimurium TA1535 assessed as increase in revertant colonies after 2 days in presence of rat liver S9 fraction by Ames test relative to control; format: toxicity; conditions: salmonella enterica subsp. enterica serovar typhimurium, s9, 48 h
[35] = tested on: Mus musculus; experiment: Inhibition of mRNA splicing of SMN2 exon 7 in C/C-allele mouse harboring FVB.129(B6) Smn1tm5(Smn1/SMN2)Mrph/J assessed as increase in SMN protein level in quadriceps at 10 mg/kg, po qd for 10 days measured 1 hr after 10th dose by HTRF assay relative to control; format: functional; parameters: scale not given: the % may be the effect or the level left

P-gp (ABCB1), sequence (P08183 whole entry): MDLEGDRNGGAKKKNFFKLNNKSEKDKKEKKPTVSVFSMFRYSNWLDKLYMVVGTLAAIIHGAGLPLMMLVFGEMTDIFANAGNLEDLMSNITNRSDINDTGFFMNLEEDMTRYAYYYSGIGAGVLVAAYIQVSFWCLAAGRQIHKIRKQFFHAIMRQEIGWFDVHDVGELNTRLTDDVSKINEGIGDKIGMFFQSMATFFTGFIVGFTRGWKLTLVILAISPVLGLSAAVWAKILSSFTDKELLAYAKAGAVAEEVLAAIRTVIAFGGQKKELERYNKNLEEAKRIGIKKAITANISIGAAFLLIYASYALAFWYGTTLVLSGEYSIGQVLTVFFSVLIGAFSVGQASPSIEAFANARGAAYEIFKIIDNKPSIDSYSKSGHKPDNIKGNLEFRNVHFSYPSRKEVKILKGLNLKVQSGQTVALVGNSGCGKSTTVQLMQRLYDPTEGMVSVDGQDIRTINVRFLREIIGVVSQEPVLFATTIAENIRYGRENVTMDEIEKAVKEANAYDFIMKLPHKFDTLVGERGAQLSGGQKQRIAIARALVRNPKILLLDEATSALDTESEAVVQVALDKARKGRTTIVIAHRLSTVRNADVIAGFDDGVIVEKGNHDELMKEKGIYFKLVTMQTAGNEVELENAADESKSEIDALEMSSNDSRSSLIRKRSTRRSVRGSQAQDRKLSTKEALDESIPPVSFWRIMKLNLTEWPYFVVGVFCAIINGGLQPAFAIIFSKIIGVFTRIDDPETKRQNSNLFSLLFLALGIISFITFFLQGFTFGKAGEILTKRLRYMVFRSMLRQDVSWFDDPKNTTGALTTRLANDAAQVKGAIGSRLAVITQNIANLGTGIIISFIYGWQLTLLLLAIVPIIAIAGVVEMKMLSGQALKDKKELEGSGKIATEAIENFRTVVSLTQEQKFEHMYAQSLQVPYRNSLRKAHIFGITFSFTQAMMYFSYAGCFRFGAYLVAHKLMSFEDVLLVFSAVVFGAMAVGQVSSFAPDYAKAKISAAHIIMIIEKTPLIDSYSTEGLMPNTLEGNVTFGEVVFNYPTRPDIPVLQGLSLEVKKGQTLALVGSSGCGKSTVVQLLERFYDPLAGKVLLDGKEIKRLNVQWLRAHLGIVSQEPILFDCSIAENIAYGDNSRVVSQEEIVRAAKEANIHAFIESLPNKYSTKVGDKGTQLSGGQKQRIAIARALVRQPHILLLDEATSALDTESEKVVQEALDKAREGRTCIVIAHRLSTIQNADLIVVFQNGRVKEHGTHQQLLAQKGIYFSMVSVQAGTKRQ

| Structure (SMILES) | efflux ratio [1] | clearance [2] [mL/min/kg] | Activity [3] [%] | half-life [4] [h] | fraction unbound [5] | fAUC [6] [ng·h/mL] | Activity [7] | inhibition [8] | Activity [9] [%] | logD at 24 h [10] | inhibition [11] | Activity [12] | Activity [13] [%] | Activity [14] [%] | Activity [15] [%] | AUC [16] [ng·h/mL] | Activity [17] [%] | fraction unbound [18] | Activity [19] | fraction unbound [20] | other results |
| --- | --- | --- | --- | --- | --- | --- | --- | --- | --- | --- | --- | --- | --- | --- | --- | --- | --- | --- | --- | --- | --- |
| Cc1cn2cc(-c3cc(=O)n4cc(N5CCN(C)CC5)ccc4n3)cc(F)c2n1 | 1.9 | 61 | 60 | 4 | 0.22 | 450 | Non-Toxic | Dose-dependent effect | 260 | 2.3 | Dose-dependent effect | Non-Toxic | 189 | 159 | 40 | 2700 | 116 | 0.16 | Non-Toxic | 0.17 | inhibition [21]: Dose-dependent effect; fraction unbound [22]: 0.18; Activity [23]: 42%; bioavailability [24]: 84%; Activity [25]: 141%; Activity [26]: Non-Toxic; clearance [27]: 9.7 mL/min/kg; half-life [28]: 2.9 h; Activity [29]: 81%; bioavailability [30]: 100%; inhibition [31]: Dose-dependent effect; Vd [32]: 2.4 L/kg; Vd [33]: 5 L/kg; Activity [34]: Non-Toxic; Activity [35]: 126% |
| Cc1cn2cc(-c3cc(=O)n4cc(N5CCN(C)CC5)ccc4n3)cc(C)c2n1 | 2.4 | 38 | 0 | 6 | 0.11 | 400 | Non-Toxic | Dose-dependent effect | 115 | 2.49 | Dose-dependent effect | Non-Toxic | 31 | 130 | 28 | 2500 | 39 | 0.1 | Non-Toxic | 0.16 | inhibition [21]: Dose-dependent effect; fraction unbound [22]: 0.08; Activity [23]: 0%; bioavailability [24]: 100%; Activity [25]: 39%; Activity [26]: Non-Toxic; clearance [27]: 7.5 mL/min/kg; half-life [28]: 8 h; Activity [29]: 70%; bioavailability [30]: 55 to 100%; inhibition [31]: Dose-dependent effect; Vd [32]: 4.3 L/kg; Vd [33]: 14 L/kg; Activity [34]: Non-Toxic; Activity [35]: 133% |
| CCc1nc(C)cn2nc(-c3cc(=O)n4cc(C5CCN(C)CC5)cc(C)c4n3)cc12 | 2 | 18 | 19 | 12 | 0.13 | 660 | Non-Toxic | Dose-dependent effect | 57 | 2.26 | Dose-dependent effect | Non-Toxic | 40 | 55 | 30 | 33000 | 20 | 0.17 | Non-Toxic | 0.02 | inhibition [21]: Dose-dependent effect; fraction unbound [22]: 0.16; Activity [23]: 7%; bioavailability [24]: 52%; Activity [25]: 122%; Activity [26]: Non-Toxic; clearance [27]: 5 mL/min/kg; half-life [28]: 40 to 60 h; Activity [29]: 57%; bioavailability [30]: 83%; inhibition [31]: Dose-dependent effect; Vd [32]: 20 L/kg; Vd [33]: 20 L/kg; Activity [34]: Non-Toxic; Activity [35]: 94% |

From ChEMBL document CHEMBL4477215, “Specific Correction of Alternative Survival Motor Neuron 2 Splicing by Small Molecules: Discovery of a Potential Novel Medicine To Treat Spinal Muscular Atrophy” (J Med Chem, 2016)
